Measurements from patent US10081662B2, “Modified relaxin B chain peptides” (The Florey Institute of Neuroscience and Mental Health, priority 2014, dated 2018).
Square brackets hold non-standard residues; d marks the D form. Peptide text beside a SMILES is read from it. hArg = N=C(N)NCCCC[C@H](N)C(=O)O; Agb = N=C(N)NCC[C@H](N)C(=O)O

Assays:
RXFP1 [1] = molecular target: T1, RXFP1 (Homo sapiens, UniProt Q9HBX9); assay: cAMP reporter gene assay (pCRE β-galactosidase) in HEK-293T cells transfected with RXFP1; assay type: cell-based; settings: HEK-293T cells co-transfected with RXFP1 and pCRE β-galactosidase reporter; n ≥ 3; read-out: RXFP1 cAMP pEC50 (converted)
T1 construct: expressed in transfected cells; host or cells: HEK-293T
T1 sequence (Q9HBX9 1-757): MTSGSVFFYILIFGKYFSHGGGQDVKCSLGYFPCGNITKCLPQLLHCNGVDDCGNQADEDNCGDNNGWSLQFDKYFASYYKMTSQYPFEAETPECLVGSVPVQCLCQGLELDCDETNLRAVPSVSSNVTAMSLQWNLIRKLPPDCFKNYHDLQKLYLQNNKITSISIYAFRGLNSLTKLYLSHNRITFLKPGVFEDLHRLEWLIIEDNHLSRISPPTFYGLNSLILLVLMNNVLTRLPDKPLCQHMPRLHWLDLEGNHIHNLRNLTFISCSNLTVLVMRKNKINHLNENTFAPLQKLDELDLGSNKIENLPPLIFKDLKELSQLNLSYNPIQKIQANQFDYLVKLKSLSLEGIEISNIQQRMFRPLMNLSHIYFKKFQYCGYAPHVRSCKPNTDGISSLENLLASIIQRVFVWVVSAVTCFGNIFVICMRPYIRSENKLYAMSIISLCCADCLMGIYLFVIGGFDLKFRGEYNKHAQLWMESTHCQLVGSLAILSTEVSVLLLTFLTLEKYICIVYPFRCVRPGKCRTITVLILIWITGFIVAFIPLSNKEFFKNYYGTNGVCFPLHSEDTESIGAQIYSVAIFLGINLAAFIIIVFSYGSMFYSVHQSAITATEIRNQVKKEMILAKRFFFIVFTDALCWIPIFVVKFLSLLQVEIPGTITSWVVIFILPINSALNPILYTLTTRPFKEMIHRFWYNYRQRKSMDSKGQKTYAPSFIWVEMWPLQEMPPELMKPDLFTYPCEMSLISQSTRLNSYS
Description: The ability of the relaxin-2 B chain peptide derivatives generated in Example 1 to stimulate cAMP response was also evaluated, using a cAMP reporter gene assay as described previously (Scott et al., 2006, J Biol Chem. 281, 34942-34954). HEK-293T cells co-transfected with either RXFP1 or RXFP2, or 7BP cells, and a pCRE β-galactosidase reporter plasmid were plated in 96-well plates. After 24 hours, the co-transfected cells were incubated with increasing concentrations of peptides in parallel to 10 nM of H2 relaxin or INSL3 for RXFP1- or RXFP2-transfected cells respectively. The amount of cAMP-driven β-galactosidase expression in each well was assessed with a colorimetric assay measuring absorbance at 570 nm on a microplate spectrophotometer. Ligand-induced cAMP stimulation was expressed as a percentage of maximal response of H2 relaxin or INSL3 for RXFP1 and RXFP2 cells respectively. Each data point was measured in triplicate and each experiment conducted independently at least three separate times. Statistical differences in pEC50 values were analyzed using one-way ANOVA coupled to Newman Keul's multiple comparison test for multiple group comparisons in GraphPad Prism 6.

RXFP1 [2] = molecular target: T1, RXFP1; assay: Eu-labelled H2 relaxin competition binding, whole HEK-293T cells stably transfected with RXFP1; settings: HEK-293T cells stably transfected with RXFP1; competition with Eu-labelled H2 relaxin; mean ± S.E; n ≥ 3; read-out: RXFP1 Eu-H2 pKi (converted)
Description: Human embryonic kidney (HEK-293T) cells stably transfected with RXFP1 were cultured in RPMI 1640 medium supplemented with 10% fetal calf serum, 100 μg/ml penicillin, 100 μg/ml streptomycin and 2 mM L-glutamine and plated into 96-well pre-coated with poly-L-lysine for whole cell binding assays. Competition binding experiments were conducted with Eu^3+-labelled H2 relaxin (as per Shabanpoor et al., 2012, Biochem Biophys Res Commun. 420, 253-256) in the absence or presence of increasing concentrations of unlabelled relaxin-2 B chain derivatives. Nonspecific binding was determined with an excess of unlabelled peptides (500 nM H2 relaxin). Fluorescent measurements were recorded at an excitation wavelength of 340 nm and emission of 614 nm on a Victor plate reader (Perkin-Elmer Inc.). […] Statistical differences in pIC50 values were analyzed using one-way analysis of variance coupled to Newman Keul's multiple comparison test for multiple group comparisons in GraphPad Prism 6.

[3] = molecular target: T2, fusion protein comprising the extracellular domain of RXFP1 and the transmembrane domain of CD8 (7BP cells) (Homo sapiens, UniProt Q9HBX9); assay: Eu-labelled H2 relaxin competition binding to 7BP cells; settings: 7BP cells; lower affinity than H2 relaxin; FIG. 2B
T2 construct: the extracellular domain of RXFP1 and the transmembrane domain of CD8; expressed in transfected cells
T2 sequence (Q9HBX9 1-409 limits assumed): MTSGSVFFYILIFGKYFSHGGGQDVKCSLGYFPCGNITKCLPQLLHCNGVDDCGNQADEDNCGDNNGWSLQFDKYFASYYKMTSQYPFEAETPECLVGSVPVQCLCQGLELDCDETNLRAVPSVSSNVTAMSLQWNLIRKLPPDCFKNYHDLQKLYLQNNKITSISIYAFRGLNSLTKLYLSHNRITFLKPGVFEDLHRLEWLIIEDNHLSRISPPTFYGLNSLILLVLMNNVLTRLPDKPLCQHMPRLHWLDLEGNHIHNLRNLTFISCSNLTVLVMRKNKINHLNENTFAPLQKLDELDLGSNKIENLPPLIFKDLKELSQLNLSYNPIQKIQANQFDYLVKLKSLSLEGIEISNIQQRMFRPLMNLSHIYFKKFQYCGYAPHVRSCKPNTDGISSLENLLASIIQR

| Compound | EC50 (RXFP1 [1]) [µM] | Ki (RXFP1 [2]) [µM] | Binding to 7BP cells (in words) [3] |
| --- | --- | --- | --- |
| CC[C@H](C)[C@H](NC(=O)[C@H](C)NC(=O)[C@H](C)NC(=O)[C@H](CCC(N)=O)NC(=O)[C@H](C)NC(=O)[C@H](CCCNC(=N)N)NC(=O)[C@@H](NC(=O)[C@H](CC(C)C)NC(=O)[C@H](CCC(=O)O)NC(=O)[C@H](CCCNC(=N)N)NC(=O)CNC(=O)[C@H](CO)NC(=O)[C@H](CC(C)C)NC(=O)[C@H](CCCCN)NC(=O)[C@@H](NC(=O)[C@@H](NC(C)=O)C(C)C)[C@@H](C)CC)C(C)C)C(=O)N[C@@H](CO)C(=O)NCC(=O)N[C@@H](CCSC)C(=O)N[C@@H](CO)C(=O)N[C@H](C(=O)N[C@@H](Cc1c[nH]c2ccccc12)C(=O)N[C@@H](CO)C(=O)N[C@@H](CCCCN)C(=O)N[C@@H](CCCNC(=N)N)C(=O)N[C@@H](CO)C(=O)N[C@@H](CC(C)C)C(N)=O)[C@@H](C)O [R20A (AcB7-33 C11.23S)] (Ac-VIKLSGRELVRAQAAISGMSTWSKRSL-NH2) | > 10 | > 10 |  |
| CC[C@H](C)[C@H](NC(=O)[C@H](C)NC(=O)[C@@H](NC(=O)[C@H](CCC(N)=O)NC(=O)[C@H](C)NC(=O)[C@H](CCCCN)NC(=O)[C@@H](NC(=O)[C@H](CC(C)C)NC(=O)[C@H](CCC(=O)O)NC(=O)[C@H](CCCNC(=N)N)NC(=O)CNC(=O)[C@H](CO)NC(=O)[C@H](CC(C)C)NC(=O)[C@H](CCCCN)NC(=O)[C@@H](NC(=O)[C@@H](N)C(C)C)[C@@H](C)CC)C(C)C)[C@@H](C)CC)C(=O)N[C@@H](CO)C(=O)NCC(=O)N[C@@H](CCSC)C(=O)N[C@@H](CO)C(=O)N[C@H](C(=O)N[C@@H](Cc1c[nH]c2ccccc12)C(=O)N[C@@H](CO)C(=O)N[C@@H](CCCCN)C(=O)N[C@@H](CCCNC(=N)N)C(=O)N[C@@H](CO)C(=O)N[C@@H](CC(C)C)C(N)=O)[C@@H](C)O [B7-33 C11.23S R17K] (H-VIKLSGRELVKAQIAISGMSTWSKRSL-NH2; N-terminus assumed) | > 10 | > 10 |  |
| CC[C@H](C)[C@H](NC(=O)[C@H](C)NC(=O)[C@@H](NC(=O)[C@H](CCC(N)=O)NC(=O)[C@H](C)NC(=O)[C@H](CCCCNC(=N)N)NC(=O)[C@@H](NC(=O)[C@H](CC(C)C)NC(=O)[C@H](CCC(=O)O)NC(=O)[C@H](CCCNC(=N)N)NC(=O)CNC(=O)[C@H](CO)NC(=O)[C@H](CC(C)C)NC(=O)[C@H](CCCCN)NC(=O)[C@@H](NC(=O)[C@@H](N)C(C)C)[C@@H](C)CC)C(C)C)[C@@H](C)CC)C(=O)N[C@@H](CO)C(=O)NCC(=O)N[C@@H](CCSC)C(=O)N[C@@H](CO)C(=O)N[C@H](C(=O)N[C@@H](Cc1c[nH]c2ccccc12)C(=O)N[C@@H](CO)C(=O)N[C@@H](CCCCN)C(=O)N[C@@H](CCCNC(=N)N)C(=O)N[C@@H](CO)C(=O)N[C@@H](CC(C)C)C(N)=O)[C@@H](C)O [B7-33 C11.23S R17HR] (H-VIKLSGRELV[hArg]AQIAISGMSTWSKRSL-NH2) | > 10 | 0.302 |  |
| CC[C@H](C)[C@H](NC(=O)[C@H](C)NC(=O)[C@@H](NC(=O)[C@H](CCC(N)=O)NC(=O)[C@H](C)NC(=O)[C@H](CCNC(=N)N)NC(=O)[C@@H](NC(=O)[C@H](CC(C)C)NC(=O)[C@H](CCC(=O)O)NC(=O)[C@H](CCCNC(=N)N)NC(=O)CNC(=O)[C@H](CO)NC(=O)[C@H](CC(C)C)NC(=O)[C@H](CCCCN)NC(=O)[C@@H](NC(=O)[C@@H](N)C(C)C)[C@@H](C)CC)C(C)C)[C@@H](C)CC)C(=O)N[C@@H](CO)C(=O)NCC(=O)N[C@@H](CCSC)C(=O)N[C@@H](CO)C(=O)N[C@H](C(=O)N[C@@H](Cc1c[nH]c2ccccc12)C(=O)N[C@@H](CO)C(=O)N[C@@H](CCCCN)C(=O)N[C@@H](CCCNC(=N)N)C(=O)N[C@@H](CO)C(=O)N[C@@H](CC(C)C)C(N)=O)[C@@H](C)O [B7-33 C11.23S R17NR] (H-VIKLSGRELV[Agb]AQIAISGMSTWSKRSL-NH2) | 1.55 | > 10 |  |
| CC[C@H](C)[C@H](NC(=O)[C@H](C)NC(=O)[C@@H](NC(=O)[C@H](CCC(N)=O)NC(=O)[C@H](C)NC(=O)[C@H](CCCNC(=N)N)NC(=O)[C@@H](NC(=O)[C@H](CC(C)C)NC(=O)[C@H](CCC(=O)O)NC(=O)[C@H](CCCNC(=N)N)NC(=O)CNC(=O)[C@H](CO)NC(=O)[C@H](CC(C)C)NC(=O)[C@H](CCCCN)NC(=O)[C@@H](NC(=O)[C@@H](N)C(C)C)[C@@H](C)CC)C(C)C)[C@@H](C)CC)C(=O)N[C@@H](CO)C(=O)NCC(=O)N[C@@H](CCSC)C(=O)N[C@@H](CO)C(=O)N[C@H](C(=O)N[C@@H](Cc1c[nH]c2ccccc12)C(=O)N[C@@H](CO)C(N)=O)[C@@H](C)O [B7-29 C11.23S] (H-VIKLSGRELVRAQIAISGMSTWS-NH2; N-terminus assumed) | > 10 | > 10 |  |
| CC[C@H](C)[C@H](NC(=O)[C@H](C)NC(=O)[C@@H](NC(=O)[C@H](CCC(N)=O)NC(=O)[C@H](C)NC(=O)[C@H](CCCNC(=N)N)NC(=O)[C@@H](NC(=O)[C@H](CC(C)C)NC(=O)[C@H](CCC(=O)O)NC(=O)[C@H](CCCNC(=N)N)NC(=O)CNC(=O)[C@H](CO)NC(=O)[C@H](CC(C)C)NC(=O)[C@H](CCCCN)NC(=O)[C@@H](NC(=O)[C@@H](NC(=O)[C@H](CCC(=O)O)NC(=O)[C@H](CCC(=O)O)NC(=O)[C@H](CCSC)NC(=O)[C@H](Cc1c[nH]c2ccccc12)NC(=O)[C@H](CO)NC(=O)[C@@H](N)CC(=O)O)C(C)C)[C@@H](C)CC)C(C)C)[C@@H](C)CC)C(=O)N[C@@H](CO)C(=O)NCC(=O)N[C@@H](CCSC)C(=O)N[C@@H](CO)C(=O)N[C@H](C(=O)N[C@@H](Cc1c[nH]c2ccccc12)C(=O)N[C@@H](CO)C(=O)N[C@@H](CCCCN)C(=O)N[C@@H](CCCNC(=N)N)C(=O)N[C@@H](CO)C(=O)N[C@@H](CC(C)C)C(N)=O)[C@@H](C)O [B1-33 C11.23S] (H-DSWMEEVIKLSGRELVRAQIAISGMSTWSKRSL-NH2) | 7.94 | 4.68 |  |
| VIKLCGRELVRAQIAICGMSTWSKRSL-NH2 [Native B7-33] |  |  | strongly bind to 7BP cells |
